Legend:
[1] = biological target: HDAC3/NCOR1 complex (Homo sapiens, UniProt O15379); test: HDACs enzymatic assay HDAC3; type: biochemical; conditions: Class I; mean ± SD of three
Procedure: (§1) HDACs enzymatic assays were conducted according to our previous work. […] Substrates (Boc‐Lys(acetyl)‐AMC for HeLa nuclear extract, Ac‐Leu‐Gly‐Lys (Tfa)‐AMC for HDAC4, HDAC5, HDAC6, HDAC7, HDAC9, HDAC10, and HDAC11, Boc‐Lys(triflouroacetyl)‐AMC for HDAC8 and Ac‐Leu‐Gly‐Lys(acetyl)‐AMC for HDAC1, HDAC2, HDAC3) were added to the mixture. The blank group was set to no enzyme or drug but contains substrates and the control group was set to no drug but contains substrates and enzymes to each 96‐well plate. After 30 min of incubation at 37°C, the mixture was terminated with 1 mg/mL trypsin and 3 µM TSA. After another 30 min, the fluorescence intensity was measured using a Varioskan plate reader at 360/460 nm. […] The inhibition curves and IC50 values were simulated and calculated using the log(inhibitor) versus response (three parameters) mode in GraphPad Prism software.

[2] = biological target: T1, HDAC4 (Homo sapiens, UniProt P56524); test: HDACs enzymatic assay HDAC4; type: biochemical; conditions: Class IIa
T1 construct: purchased BPS BIOSCIENCE Inc 50004
Procedure: as §1

[3] = biological target: T2, HDAC7 (Homo sapiens, UniProt Q8WUI4); test: HDACs enzymatic assay HDAC7; type: biochemical; conditions: Class IIa
T2 construct: purchased BPS BIOSCIENCE Inc 50007
Procedure: as §1

[4] = test system: MDA-MB-231; test: CCK-8 antiproliferation assay; type: cell-based, human
Procedure: Cell lines purchased from the Cell Bank of Type Culture Collection of the Chinese Academy of Sciences (Shanghai, China) were passaged after resuscitation. […] The third to tenth passages of cells were used for experiments. […] After incubation, 20 µL CCK‐8 solution (MeilunBio) was added. Two hours later, absorption was measured by a Varioskan plate at 450 nm. Inhibition curves and IC50 values were simulated and calculated using the log(inhibitor) versus response (three parameters) mode via GraphPad Prism software.

[5] = In vitro metabolic assay, mouse liver microsomes; type: in vitro ADME
Procedure: Compounds were prepared in a working solution of 2 mg/mL with methanol. […]; Research Institute for Liver Disease (Shanghai) Co., Ltd) were mixed with NADPH (the final concentration is 4 mM), MgCl2 (the final concentration is 6 mM), and shaken at 37°C for 5 min. Then, compound solutions were added to the system and incubated for 0, 10, 20, 30, 60, 90, and 120 min at 37°C under shaking conditions. The mixture was quenched with cold acetonitrile and analyzed with a Shimadzu LC‐20AT system and a C18‐silica column (Thermo; 4.6 × 250 mm, 5 µm).

[6] = In vivo pharmacokinetic study; conditions: Sprague-Dawley, rat, plasma, male SD rats
Procedure: The compound was prepared in a 1 mg/mL working solution using DMSO/solutol/saline. SD rats (6–8 weeks old, 180–200 g, male) were purchased from Beijing HFK Bioscience Co., Ltd. (Beijing, China) and fed in accordance with the guidelines for the care and use of laboratory animals of the ethical committee of Shandong University. The doses were 2.5 mg/kg (i.v.) and 10 mg/kg (i.g.), with three animals per treatment group. Blood samples were collected from the jugular vein at different time points using heparin sodium anticoagulation tubes. After anesthetizing rats with ether, blood samples were placed in an ice water mixture for 15 min, then centrifuged at 3000×g for 3 min to separate the plasma, and stored at −20°C. The LC–MS/MS was used to detect the concentration of the analyte at each time point, and the pharmacokinetic parameters were calculated using WinNolin8.2 software.

[7] = test system: immune cells of MC38 syngeneic model; test: Flow cytometry of tumor-infiltrating and spleen immune cells, MC38 model; type: in vivo, C57BL/6J mice
Procedure: After 14 days, the tumors and spleens were split, and cells were isolated to analyze the change in cancer immunity. For TILs, the tumors were incubated with the tumor digestion fluid (collagenase and hyaluronic acid included) and then filtered with a 200‐gauge mesh and centrifuged (100×g, 1 min). The supernatant was centrifuged (400×g, 5 min) and precipitated cells were purified by 40% percoll solution followed by RBC lysis and washing. For splenocytes, the spleen was passed through a 200‐gauge mesh, and splenocytes were collected after RBC lysis and washing.
The prepared cell suspensions were incubated with rat serum at room temperature for 30 min to block the FC‐receptor and incubated with fluorescent antibodies at 4°C for 1 h. For Foxp3 staining, Foxp3/Transcription Factor Staining Buffer Set (eBioscience; #00‐5523‐00) was used. For intracellular cytokines staining, cells were pre‐stimulated with 1 µg/mL ionomycin (Beyotime; #S1672), 50 ng/mL PMA (Sigma; #P1585) and Brefeldin A (BioLegend; #420601) for 4 h. Flow cytometry was conducted with FACS Celesta (BD Biosciences, USA) and analyzed with FlowJo software.

T1 sequence (P56524 whole entry): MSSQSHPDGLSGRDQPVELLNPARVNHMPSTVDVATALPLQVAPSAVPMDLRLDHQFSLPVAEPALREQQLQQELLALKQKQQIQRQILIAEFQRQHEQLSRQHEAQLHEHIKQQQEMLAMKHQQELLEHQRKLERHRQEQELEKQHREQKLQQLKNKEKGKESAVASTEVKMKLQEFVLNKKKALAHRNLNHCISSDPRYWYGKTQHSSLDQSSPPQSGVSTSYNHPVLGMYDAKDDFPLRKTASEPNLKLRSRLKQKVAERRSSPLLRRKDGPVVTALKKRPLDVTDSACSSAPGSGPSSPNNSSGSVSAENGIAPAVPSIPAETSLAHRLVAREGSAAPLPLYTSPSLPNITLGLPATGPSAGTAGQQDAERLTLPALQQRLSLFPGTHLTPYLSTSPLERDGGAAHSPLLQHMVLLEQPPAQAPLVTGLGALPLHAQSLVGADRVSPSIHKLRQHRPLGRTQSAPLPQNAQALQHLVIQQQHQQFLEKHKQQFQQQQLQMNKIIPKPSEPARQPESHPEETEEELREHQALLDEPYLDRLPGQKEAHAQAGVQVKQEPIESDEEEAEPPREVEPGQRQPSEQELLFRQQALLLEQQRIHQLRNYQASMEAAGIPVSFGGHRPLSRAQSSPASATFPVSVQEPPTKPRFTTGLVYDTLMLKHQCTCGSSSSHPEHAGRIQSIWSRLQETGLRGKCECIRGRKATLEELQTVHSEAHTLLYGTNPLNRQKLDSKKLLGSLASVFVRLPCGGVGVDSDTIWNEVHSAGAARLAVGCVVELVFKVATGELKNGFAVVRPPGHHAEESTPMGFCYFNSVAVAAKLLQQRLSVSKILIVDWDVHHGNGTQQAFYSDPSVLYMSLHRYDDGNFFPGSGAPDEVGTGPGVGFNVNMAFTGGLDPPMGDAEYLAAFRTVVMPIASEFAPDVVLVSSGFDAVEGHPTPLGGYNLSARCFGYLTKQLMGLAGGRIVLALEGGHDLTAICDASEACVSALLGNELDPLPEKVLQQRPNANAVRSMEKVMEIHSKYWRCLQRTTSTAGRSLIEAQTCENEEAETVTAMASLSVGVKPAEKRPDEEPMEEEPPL
Sequence of HDAC3/NCOR1 complex (O15379 whole entry): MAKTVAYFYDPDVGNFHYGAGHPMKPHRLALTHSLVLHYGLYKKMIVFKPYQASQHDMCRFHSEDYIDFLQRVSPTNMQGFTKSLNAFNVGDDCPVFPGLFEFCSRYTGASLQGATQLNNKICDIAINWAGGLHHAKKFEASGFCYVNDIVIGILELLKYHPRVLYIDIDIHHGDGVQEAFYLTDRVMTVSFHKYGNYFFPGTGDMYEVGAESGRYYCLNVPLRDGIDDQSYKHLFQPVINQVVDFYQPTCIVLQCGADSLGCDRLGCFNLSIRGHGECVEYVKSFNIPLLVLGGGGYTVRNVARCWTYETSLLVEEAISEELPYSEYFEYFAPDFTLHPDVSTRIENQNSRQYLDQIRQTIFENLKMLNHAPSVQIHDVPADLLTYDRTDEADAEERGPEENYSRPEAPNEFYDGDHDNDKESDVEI
Sequence of HDAC3/NCOR1 complex (Q9Y618 395-489 partner): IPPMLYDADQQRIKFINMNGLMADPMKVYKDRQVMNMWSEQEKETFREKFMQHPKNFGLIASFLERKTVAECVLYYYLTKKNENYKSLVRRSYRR
T2 sequence (Q8WUI4 whole entry): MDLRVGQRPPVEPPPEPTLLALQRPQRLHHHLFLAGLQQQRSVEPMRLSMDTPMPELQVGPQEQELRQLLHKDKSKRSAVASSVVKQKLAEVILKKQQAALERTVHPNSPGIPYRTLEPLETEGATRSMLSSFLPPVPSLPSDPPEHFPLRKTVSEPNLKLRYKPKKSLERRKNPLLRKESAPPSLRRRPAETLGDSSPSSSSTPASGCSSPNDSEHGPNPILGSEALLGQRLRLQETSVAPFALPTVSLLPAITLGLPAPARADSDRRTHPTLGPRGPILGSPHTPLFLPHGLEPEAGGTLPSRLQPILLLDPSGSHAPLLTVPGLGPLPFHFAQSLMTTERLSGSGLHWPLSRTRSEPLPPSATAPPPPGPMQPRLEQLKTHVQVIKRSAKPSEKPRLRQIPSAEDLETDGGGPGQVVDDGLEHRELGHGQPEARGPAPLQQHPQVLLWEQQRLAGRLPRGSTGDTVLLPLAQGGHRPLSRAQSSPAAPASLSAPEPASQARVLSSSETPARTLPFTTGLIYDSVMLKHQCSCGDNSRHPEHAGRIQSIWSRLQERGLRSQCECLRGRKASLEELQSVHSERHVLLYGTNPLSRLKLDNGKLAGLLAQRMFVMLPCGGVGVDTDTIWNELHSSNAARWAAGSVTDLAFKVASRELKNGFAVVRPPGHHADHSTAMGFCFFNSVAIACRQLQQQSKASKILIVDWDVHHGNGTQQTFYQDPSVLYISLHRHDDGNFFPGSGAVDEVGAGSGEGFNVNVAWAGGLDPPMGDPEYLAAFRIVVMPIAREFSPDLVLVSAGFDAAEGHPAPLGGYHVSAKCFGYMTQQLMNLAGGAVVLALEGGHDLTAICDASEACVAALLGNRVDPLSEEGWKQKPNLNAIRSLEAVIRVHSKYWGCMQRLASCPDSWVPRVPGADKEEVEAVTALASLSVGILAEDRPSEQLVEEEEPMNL

Structure (SMILES): O=C(CCCCCCNC(=O)c1cc(OCCc2ccccc2)c2ccccc2n1)NO [SDFZ-8]
- IC50 [1]: 300 ± 100 nM
- IC50 [2]: > 10000 nM
- IC50 [3]: > 10000 nM
- IC50 ([4]; Homo sapiens, MDA-MB-231, 48 h treatment, CCK-8): 470 ± 80 nM
- antiproliferation activity better than SAHA ([4]; MDA-MB-231 cells, versus SAHA): threefold
- half-life ([5]; mouse liver microsomes, read-out: half-life T 1/2 in mouse liver microsomes): 12.3 min
- microsomal CLint ([5]; mouse, microsomes): 56.3 µL/min/mg
- AUC(0-inf) ([6]; iv, i.v. 2.5 mg/kg): 3120 ± 242 ng·h/mL
- AUC(0-t) ([6]; iv, i.v. 2.5 mg/kg): 2730 ± 260 ng·h/mL
- Cmax ([6]; iv, i.v. 2.5 mg/kg): 1750 ± 498 ng/mL
- Tmax ([6]; iv, i.v. 2.5 mg/kg): 4.8 ± 0.6 min
- half-life ([6]; iv, i.v. 2.5 mg/kg): 137 ± 74.4 min
- bioavailability ([6]; oral, i.g. 10 mg/kg vs i.v. 2.5 mg/kg, read-out: F% (oral bioavailability)): 26.1%
- AUC(0-inf) ([6]; po, i.g. 10 mg/kg): 3260 ± 663 ng·h/mL
- AUC(0-t) ([6]; po, i.g. 10 mg/kg): 3080 ± 206 ng·h/mL
- Cmax ([6]; po, i.g. 10 mg/kg): 659 ± 63.1 ng/mL
- Tmax ([6]; po, i.g. 10 mg/kg): 19.8 ± 8.4 min
- half-life ([6]; po, i.g. 10 mg/kg): 344 ± 90.6 min
- PD-1 expression in tumor-infiltrating CD4+ T cells and CD8+ T cells [7]: did not affect
- PD-1 expression in tumor-infiltrating NK cells [7]: downregulated
- PD-L1 expression in tumor-infiltrating immune cells (DCs and macrophages) [7]: upregulation
- surface expression of MHC class II in DCs and macrophages [7]: significantly increased
- tumor-infiltrating lymphocytes (TILs) ([7]; CD4+ and CD8+ T cells): more significant increase
- M2 polarization of TAMs ([7]; CD206 marker): suppressed
- M1 polarization of TAMs ([7]; iNOS marker): robustly promoted
- PD-L1 and PD-1 expression in various immune cells in the spleen ([7]; spleen): significantly decreased
- proportion of CD4+ T cells, CD8+ T cells and NK cells in the spleen ([7]; spleen): elevated
- expression of IFN-γ and TNF-α in CD4+ T cells and CD8+ T cells ([7]; tumor): upregulation
